# Tests used:
# Parameters in all cases: scale not given here
# ECHOG Barnyardgrass [1] = test: Preemergence herbicidal evaluation, ECHOG; type: in vivo, Echinochloa crus-galli, (L.) Beau; conditions: preemergence
# Procedure, shortened: (§1)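 Seeds mixed with potting soil in cups, then sprayed preemergence with aqueous acetone test solution at about 0.013 to 0.800 kg per hectare equivalent. Cups kept under standard greenhouse care; plants rated on a visual scale four to five weeks after treatment.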
# ORYSAT Rice, Tebonnet [2] = test: Preemergence herbicidal evaluation, ORYSAT; type: in vivo, Oryza sativa, (L.); conditions: preemergence
# Procedure, shortened: as §1
# GALAP Galium [3] = test: Preemergence herbicidal evaluation, GALAP; type: in vivo, Galium aparine; conditions: preemergence
# Procedure, shortened: as §1
# CASOB Sicklepod [4] = test: Postemergence herbicidal evaluation, CASOB; type: in vivo, Cassia obtusifolia, L.; conditions: postemergence spray, rated about two-three weeks after treatment
# Procedure, shortened: (§2)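 Seedlings grown about two weeks were sprayed with compound in 80/20 acetone/water containing 1.0% methylated seed oil, at the equivalent of about 0.006 to 0.400 kg/ha, through a nozzle at 40 psi. Plants were kept in the greenhouse and rated visually about two to three weeks after treatment.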
# GLXMAW Soybean, Williams [5] = test: Postemergence herbicidal evaluation, GLXMAW; type: in vivo, Glycine max, (L.) Merr. cv Williams; conditions: postemergence spray, rated about two-three weeks after treatment
# Procedure, shortened: as §2
# GLXMAW Soybean, Williams [6] = test: Preemergence herbicidal evaluation, GLXMAW; type: in vivo, Glycine max, (L.) Merr. cv Williams; conditions: preemergence
# Procedure, shortened: as §1
# ORYSAT Rice, Tebonnet [7] = test: Postemergence herbicidal evaluation, ORYSAT; type: in vivo, Oryza sativa, (L.); conditions: postemergence spray, rated about two-three weeks after treatment
# Procedure, shortened: as §2
# ECHOG Barnyardgrass [8] = test: Postemergence herbicidal evaluation, ECHOG; type: in vivo, Echinochloa crus-galli, (L.) Beau; conditions: postemergence spray, rated about two-three weeks after treatment
# Procedure, shortened: as §2
# [9] = system: IPOHE Morningglory, Ivyleaf; test: Postemergence herbicidal evaluation, IPOHE; type: in vivo, Ipomoea hederacea, (L.) Jacq.; conditions: postemergence spray, rated about two-three weeks after treatment
# Procedure, shortened: as §2
# ABUTH Velvetleaf [10] = test: Postemergence herbicidal evaluation, ABUTH; type: in vivo, Abutilon theophrasti, Medic.; conditions: postemergence spray, rated about two-three weeks after treatment
# Procedure, shortened: as §2
# [11] = system: TRZAWR Wheat, Winter, cv Riband; test: Postemergence herbicidal evaluation, TRZAWR; type: in vivo, Triticum aestivum; conditions: postemergence spray, rated about two-three weeks after treatment
# Procedure, shortened: as §2
# SETVI Foxtail, Green [12] = test: Preemergence herbicidal evaluation, SETVI; type: in vivo, Setaria viridis, (L.) Beau; conditions: preemergence
# Procedure, shortened: as §1
# SETVI Foxtail, Green [13] = test: Postemergence herbicidal evaluation, SETVI; type: in vivo, Setaria viridis, (L.) Beau; conditions: postemergence spray, rated about two-three weeks after treatment
# Procedure, shortened: as §2
# ZEAMX Corn, Field [14] = test: Preemergence herbicidal evaluation, ZEAMX; type: in vivo, Zea mays, L. (Sammel-Bezeichnung); conditions: preemergence
# Procedure, shortened: as §1
# ABUTH Velvetleaf [15] = test: Preemergence herbicidal evaluation, ABUTH; type: in vivo, Abutilon theophrasti, Medic.; conditions: preemergence
# Procedure, shortened: as §1
# AMBEL Ragweed, Common [16] = test: Postemergence herbicidal evaluation, AMBEL; type: in vivo, Ambrosia artemisifolia, L.; conditions: postemergence spray, rated about two-three weeks after treatment
# Procedure, shortened: as §2
# GALAP Galium [17] = test: Postemergence herbicidal evaluation, GALAP; type: in vivo, Galium aparine; conditions: postemergence spray, rated about two-three weeks after treatment
# Procedure, shortened: as §2
# [18] = system: CHEAL Lambsquarters, Common; test: Preemergence herbicidal evaluation, CHEAL; type: in vivo, Chenopodium album, L.; conditions: preemergence
# Procedure, shortened: as §1
# AMBEL Ragweed, Common [19] = test: Preemergence herbicidal evaluation, AMBEL; type: in vivo, Ambrosia artemisifolia, L.; conditions: preemergence
# Procedure, shortened: as §1
# ZEAMX Corn, Field [20] = test: Postemergence herbicidal evaluation, ZEAMX; type: in vivo, Zea mays, L. (Sammel-Bezeichnung); conditions: postemergence spray, rated about two-three weeks after treatment
# Procedure, shortened: as §2
# [21] = system: CHEAL Lambsquarters, Common; test: Postemergence herbicidal evaluation, CHEAL; type: in vivo, Chenopodium album, L.; conditions: postemergence spray, rated about two-three weeks after treatment
# Procedure, shortened: as §2
# CASOB Sicklepod [22] = test: Preemergence herbicidal evaluation, CASOB; type: in vivo, Cassia obtusifolia, L.; conditions: preemergence
# Procedure, shortened: as §1
# [23] = system: IPOHE Morningglory, Ivyleaf; test: Preemergence herbicidal evaluation, IPOHE; type: in vivo, Ipomoea hederacea, (L.) Jacq.; conditions: preemergence
# Procedure, shortened: as §1
# [24] = system: TRZAWR Wheat, Winter, cv Riband; test: Preemergence herbicidal evaluation, TRZAWR; type: in vivo, Triticum aestivum; conditions: preemergence
# Procedure, shortened: as §1
compound,measurement,setting,value
COC(=O)COc1ccc(C)c(-n2nnc3cc(F)c(-n4c(=O)cc(C(F)(F)F)n(C)c4=O)cc32)c1 [Example 38],ECHCG herbicidal rating,ECHOG Barnyardgrass [1]; rate 0.016 kg/ha,0.0
same,ECHCG herbicidal rating,ECHOG Barnyardgrass [1]; rate 0.032 kg/ha,0.0
same,ECHCG herbicidal rating,ECHOG Barnyardgrass [1]; rate 0.062 kg/ha,0.0
same,ECHCG herbicidal rating,ECHOG Barnyardgrass [1]; rate 0.125 kg/ha,0.0
same,ORYSAT herbicidal rating,"ORYSAT Rice, Tebonnet [2]; rate 0.016 kg/ha",0.0
same,ORYSAT herbicidal rating,"ORYSAT Rice, Tebonnet [2]; rate 0.032 kg/ha",0.0
same,ORYSAT herbicidal rating,"ORYSAT Rice, Tebonnet [2]; rate 0.062 kg/ha",0.0
same,ORYSAT herbicidal rating,"ORYSAT Rice, Tebonnet [2]; rate 0.125 kg/ha",0.0
same,GALAP herbicidal rating,GALAP Galium [3]; rate 0.016 kg/ha,0.0
same,GALAP herbicidal rating,GALAP Galium [3]; rate 0.032 kg/ha,0.0
same,GALAP herbicidal rating,GALAP Galium [3]; rate 0.062 kg/ha,0.0
same,GALAP herbicidal rating,GALAP Galium [3]; rate 0.125 kg/ha,0.0
same,Postemergence herbicidal rating CASOB,CASOB Sicklepod [4]; 0.008 kg/ha,0.0
same,Postemergence herbicidal rating CASOB,CASOB Sicklepod [4]; 0.016 kg/ha,0.0
same,Postemergence herbicidal rating CASOB,CASOB Sicklepod [4]; 0.032 kg/ha,0.0
same,Postemergence herbicidal rating CASOB,CASOB Sicklepod [4]; 0.062 kg/ha,1.0
same,Postemergence herbicidal rating GLXMAW,"GLXMAW Soybean, Williams [5]; 0.008 kg/ha",5.5
same,Postemergence herbicidal rating GLXMAW,"GLXMAW Soybean, Williams [5]; 0.016 kg/ha",5.5
same,Postemergence herbicidal rating GLXMAW,"GLXMAW Soybean, Williams [5]; 0.032 kg/ha",6.0
same,Postemergence herbicidal rating GLXMAW,"GLXMAW Soybean, Williams [5]; 0.062 kg/ha",7.5
same,GLXMAW herbicidal rating,"GLXMAW Soybean, Williams [6]; rate 0.016 kg/ha",0.0
same,GLXMAW herbicidal rating,"GLXMAW Soybean, Williams [6]; rate 0.032 kg/ha",0.0
same,GLXMAW herbicidal rating,"GLXMAW Soybean, Williams [6]; rate 0.062 kg/ha",0.0
same,GLXMAW herbicidal rating,"GLXMAW Soybean, Williams [6]; rate 0.125 kg/ha",0.0
same,Postemergence herbicidal rating ORYSAT,"ORYSAT Rice, Tebonnet [7]; 0.008 kg/ha",1.0
same,Postemergence herbicidal rating ORYSAT,"ORYSAT Rice, Tebonnet [7]; 0.016 kg/ha",2.0
same,Postemergence herbicidal rating ORYSAT,"ORYSAT Rice, Tebonnet [7]; 0.032 kg/ha",3.5
same,Postemergence herbicidal rating ORYSAT,"ORYSAT Rice, Tebonnet [7]; 0.062 kg/ha",6.0
same,Postemergence herbicidal rating ECHCG,ECHOG Barnyardgrass [8]; 0.008 kg/ha,0.0
same,Postemergence herbicidal rating ECHCG,ECHOG Barnyardgrass [8]; 0.016 kg/ha,0.0
same,Postemergence herbicidal rating ECHCG,ECHOG Barnyardgrass [8]; 0.032 kg/ha,3.0
same,Postemergence herbicidal rating ECHCG,ECHOG Barnyardgrass [8]; 0.062 kg/ha,3.0
same,Postemergence herbicidal rating IPOHE,[9]; 0.008 kg/ha,5.0
same,Postemergence herbicidal rating IPOHE,[9]; 0.016 kg/ha,5.0
same,Postemergence herbicidal rating IPOHE,[9]; 0.032 kg/ha,9.0
same,Postemergence herbicidal rating IPOHE,[9]; 0.062 kg/ha,9.0
same,Postemergence herbicidal rating ABUTH,ABUTH Velvetleaf [10]; 0.008 kg/ha,3.0
same,Postemergence herbicidal rating ABUTH,ABUTH Velvetleaf [10]; 0.016 kg/ha,8.0
same,Postemergence herbicidal rating ABUTH,ABUTH Velvetleaf [10]; 0.032 kg/ha,9.0
same,Postemergence herbicidal rating ABUTH,ABUTH Velvetleaf [10]; 0.062 kg/ha,9.0
same,Postemergence herbicidal rating TRZAWR,[11]; 0.008 kg/ha,3.5
same,Postemergence herbicidal rating TRZAWR,[11]; 0.016 kg/ha,4.5
same,Postemergence herbicidal rating TRZAWR,[11]; 0.032 kg/ha,6.0
same,Postemergence herbicidal rating TRZAWR,[11]; 0.062 kg/ha,8.0
same,SETVI herbicidal rating,"SETVI Foxtail, Green [12]; rate 0.016 kg/ha",0.0
same,SETVI herbicidal rating,"SETVI Foxtail, Green [12]; rate 0.032 kg/ha",0.0
same,SETVI herbicidal rating,"SETVI Foxtail, Green [12]; rate 0.062 kg/ha",0.0
same,SETVI herbicidal rating,"SETVI Foxtail, Green [12]; rate 0.125 kg/ha",9.0
same,Postemergence herbicidal rating SETVI,"SETVI Foxtail, Green [13]; 0.008 kg/ha",0.0
same,Postemergence herbicidal rating SETVI,"SETVI Foxtail, Green [13]; 0.016 kg/ha",0.0
same,Postemergence herbicidal rating SETVI,"SETVI Foxtail, Green [13]; 0.032 kg/ha",7.0
same,Postemergence herbicidal rating SETVI,"SETVI Foxtail, Green [13]; 0.062 kg/ha",9.0
same,ZEAMX herbicidal rating,"ZEAMX Corn, Field [14]; rate 0.016 kg/ha",0.0
same,ZEAMX herbicidal rating,"ZEAMX Corn, Field [14]; rate 0.032 kg/ha",0.0
same,ZEAMX herbicidal rating,"ZEAMX Corn, Field [14]; rate 0.062 kg/ha",0.0
same,ZEAMX herbicidal rating,"ZEAMX Corn, Field [14]; rate 0.125 kg/ha",0.0
same,ABUTH herbicidal rating,ABUTH Velvetleaf [15]; rate 0.016 kg/ha,0.0
same,ABUTH herbicidal rating,ABUTH Velvetleaf [15]; rate 0.032 kg/ha,0.0
same,ABUTH herbicidal rating,ABUTH Velvetleaf [15]; rate 0.062 kg/ha,2.0
same,ABUTH herbicidal rating,ABUTH Velvetleaf [15]; rate 0.125 kg/ha,9.0
same,Postemergence herbicidal rating AMBEL,"AMBEL Ragweed, Common [16]; 0.008 kg/ha",2.0
same,Postemergence herbicidal rating AMBEL,"AMBEL Ragweed, Common [16]; 0.016 kg/ha",7.0
same,Postemergence herbicidal rating AMBEL,"AMBEL Ragweed, Common [16]; 0.032 kg/ha",7.0
same,Postemergence herbicidal rating AMBEL,"AMBEL Ragweed, Common [16]; 0.062 kg/ha",9.0
same,Postemergence herbicidal rating GALAP,GALAP Galium [17]; 0.008 kg/ha,0.0
same,Postemergence herbicidal rating GALAP,GALAP Galium [17]; 0.016 kg/ha,0.0
same,Postemergence herbicidal rating GALAP,GALAP Galium [17]; 0.032 kg/ha,3.0
same,Postemergence herbicidal rating GALAP,GALAP Galium [17]; 0.062 kg/ha,4.0
same,CHEAL herbicidal rating,[18]; rate 0.016 kg/ha,9.0
same,CHEAL herbicidal rating,[18]; rate 0.032 kg/ha,9.0
same,CHEAL herbicidal rating,[18]; rate 0.062 kg/ha,9.0
same,CHEAL herbicidal rating,[18]; rate 0.125 kg/ha,9.0
same,AMBEL herbicidal rating,"AMBEL Ragweed, Common [19]; rate 0.016 kg/ha",0.0
same,AMBEL herbicidal rating,"AMBEL Ragweed, Common [19]; rate 0.032 kg/ha",0.0
same,AMBEL herbicidal rating,"AMBEL Ragweed, Common [19]; rate 0.062 kg/ha",0.0
same,AMBEL herbicidal rating,"AMBEL Ragweed, Common [19]; rate 0.125 kg/ha",9.0
same,Postemergence herbicidal rating ZEAMX,"ZEAMX Corn, Field [20]; 0.008 kg/ha",7.5
same,Postemergence herbicidal rating ZEAMX,"ZEAMX Corn, Field [20]; 0.016 kg/ha",8.0
same,Postemergence herbicidal rating ZEAMX,"ZEAMX Corn, Field [20]; 0.032 kg/ha",8.0
same,Postemergence herbicidal rating ZEAMX,"ZEAMX Corn, Field [20]; 0.062 kg/ha",8.0
same,Postemergence herbicidal rating CHEAL,[21]; 0.008 kg/ha,0.0
same,Postemergence herbicidal rating CHEAL,[21]; 0.016 kg/ha,0.0
same,Postemergence herbicidal rating CHEAL,[21]; 0.032 kg/ha,2.0
same,Postemergence herbicidal rating CHEAL,[21]; 0.062 kg/ha,3.0
same,CASOB herbicidal rating,CASOB Sicklepod [22]; rate 0.016 kg/ha,0.0
same,CASOB herbicidal rating,CASOB Sicklepod [22]; rate 0.032 kg/ha,0.0
same,CASOB herbicidal rating,CASOB Sicklepod [22]; rate 0.062 kg/ha,0.0
same,CASOB herbicidal rating,CASOB Sicklepod [22]; rate 0.125 kg/ha,2.0
same,IPOHE herbicidal rating,[23]; rate 0.016 kg/ha,0.0
same,IPOHE herbicidal rating,[23]; rate 0.032 kg/ha,0.0
same,IPOHE herbicidal rating,[23]; rate 0.062 kg/ha,0.0
same,TRZAWR herbicidal rating,[24]; rate 0.016 kg/ha,0.0
same,TRZAWR herbicidal rating,[24]; rate 0.032 kg/ha,0.0
same,TRZAWR herbicidal rating,[24]; rate 0.062 kg/ha,0.0
same,TRZAWR herbicidal rating,[24]; rate 0.125 kg/ha,0.0

# — patent US20020111274A1, “1-alkyl-3-[1-(substituted phenyl) benzotriazol-6-yl] uracils” (BASF Aktiengesellschaft, priority 2000, published 2002)
